The conditions of data set [1]: mouse, in vivo, iv.
The nature of another data set: in vivo. Conditions: C57BL/6, mouse, iv, 5 mg/kg.
Data set [2] deals with SCC-9 oral squamous cell carcinoma cell line. Briefly: MTT anti-proliferation assay in SCC-9. Conditions: for IC50: Homo sapiens, SCC-9, 72 h, read-out: IC50 anti-proliferation activity; for IC50 anti-proliferation activity: SCC-9, MTT, treatment period 72 hr, triplicate. The format is cell-based.
The test system of data set [3] is Cal-27 oral squamous cell carcinoma cell line. Briefly: MTT anti-proliferation assay in Cal-27. It is filed as cell-based. The following applies: for IC50: Homo sapiens, read-out: IC50 anti-proliferation activity; for IC50 anti-proliferation activity: Cal-27, MTT, triplicate.
Data set [4] can be described thus: Caco-2 monolayer apical to basolateral transport. It is filed as in vitro ADME. Conditions: human, Caco-2, pH 7.4.
A short description of data set [5]: Oral pharmacokinetics of ME in corn oil in mice.
Data set [6] in a line: I.V. pharmacokinetics of ME nanosuspension in mice.
Data set [7] in a line: Oral pharmacokinetics of ME nanosuspension in mice. The following applies: for absolute bioavailability (estimated): oral 60 mg/kg ME nanosuspension vs I.V. 5 mg/kg.
Data set [8] relates to CYP450 (mouse intestinal S9 fraction). Briefly: Phase I CYP metabolism of MHNK to HNK in mouse intestinal S9 fraction. The following applies: MHNK 5, 1 and 0.5 µM, 60 min. The format is in vitro ADME, C57BL/6 mouse.
Data set [9] deals with CYP450 (mouse liver microsomes). The data set can be described thus: Phase I CYP metabolism of MHNK to HNK in mouse liver microsomes. The format is in vitro ADME, C57BL/6 mouse. The following applies: 0.5 µM MHNK, after 60 min, 37 °C.
A further data set concerns Caco-2 cell monolayer. Briefly: Caco-2 monolayer apical to basolateral transport. It is filed as in vitro ADME. The following applies: ME 0.05 mg/mL in HBSS pH 7.4, 37 °C, n=3.
The mark [10] stands for this setting: C57BL/6, mouse, in vivo, po, 60 mg/kg.
Setting [11] is: C57BL/6, mouse, in vivo, iv, 5 mg/kg.
Where [12] appears, read: oral 60 mg ME/kg in corn oil, mouse whole blood, n=5.
Setting [13] is: oral 60 mg ME/kg in corn oil, n=5.
Setting [14] is: I.V. 5 mg ME/kg, mouse whole blood, n=5.
The mark [15] stands for this setting: oral 60 mg ME/kg in nanosuspension, mouse whole blood, n=5.
Where [16] appears, read: oral 60 mg ME/kg in nanosuspension, n=5.

In brackets after ≈: the same amount, converted by molar mass. Several values for one entry are separate records, joined by “and”; a condition that tells them apart may be missing. Equal values may be shown once. Read-outs that look alike come from different tables or passages of the source.

On to `C=CCc1ccc(O)c(-c2cc(CC=C)ccc2OS(=O)(=O)O)c1` [MGN_Sulfate], for which, in data set [1], the Half-life was determined as 2.2 ± 0.7 h and the Tmax was found to be 6 ± 6 min.

In “in vivo”, `C=CCc1ccc(O)c(-c2ccc(O)c(CC=C)c2)c1` [HNK, honokiol] gave an AUC(0-inf) of 1150 ± 719 ng·h/mL, an AUC(0-t) of 1150 ± 719 ng·h/mL, a Cmax of 2400 ± 1040 ng/mL and a Half-life of 0.7 ± 0.04 h. In “in vivo”, the MRT last was 0.6 ± 0.1 h and the clearance was 20 mL/min/kg. Moreover, in [2], the IC50 amounted to 5.5 ± 0.6 µg/mL (≈ 20.7 µM). Besides, in data set [3] (CAL-27, 24 h), the IC50 stood at 20.8 ± 1.3 µg/mL (≈ 78.1 µM). In data set [3] (CAL-27, 48 h), the IC50 is 12.2 ± 1 µg/mL (≈ 45.8 µM). The IC50 in data set [3] (CAL-27, 72 h) was found to be 6.6 ± 0.6 µg/mL (≈ 24.8 µM). For the same compound, the IC50 in [3] (CAL-27, 96 h) stood at 4.2 ± 0.4 µg/mL (≈ 15.8 µM). The same compound displayed a Papp A→B at 4 h, 0.05 mg/mL in [4] of 13.4 ×10⁻⁶ cm/s.

In the case of `C=CCc1ccc(O)c(-c2cc(CC=C)ccc2O)c1` [MGN, magnolol], the AUC(0-inf) in data set [5] (setting [10]) stood at 37.8 ± 16.5 ng·h/mL; in data set [6] (setting [11]), 1230 ± 651 ng·h/mL; in [7] (setting [10]) it was 182 ± 28.8 ng·h/mL. Further, the AUC(0-t) worked out at 23.1 ± 5.3 ng·h/mL in [5] (setting [10]), 1230 ± 650 ng·h/mL in [6] (setting [11]) and 176 ± 27.3 ng·h/mL in data set [7] (setting [10]). Also, the Cmax in data set [5] (setting [10]) turned out to be 9.4 ± 3.3 ng/mL; in [6] (setting [11]), 2280 ± 700 ng/mL; in data set [7] (setting [10]) it was 29.1 ± 10.4 ng/mL. The Half-life is 3.8 ± 2.3 h in data set [5] (setting [10]), 1 ± 0.3 h in [6] (setting [11]) and 5 ± 1.5 h in data set [7] (setting [10]). Also, the MRT last in [5] (setting [10]) stood at 2.3 ± 0.6 h; in data set [6] (setting [11]), 0.8 ± 0.5 h; in data set [7] (setting [10]), 5.1 ± 0.6 h. The Tmax in data set [5] (setting [10]) is 0.9 ± 0.7 h; in data set [7] (setting [10]), 2.2 ± 1.5 h. Moreover, the IC50 in data set [2] is 7.9 ± 0.4 µg/mL (≈ 29.7 µM); in [3] (CAL-27, 24 h) it was 20.7 ± 1.8 µg/mL (≈ 77.7 µM); in [3] (CAL-27, 48 h), 11.9 ± 0.6 µg/mL (≈ 44.7 µM); in data set [3] (CAL-27, 72 h) it was 5.1 ± 0.6 µg/mL (≈ 19.1 µM); in data set [3] (CAL-27, 96 h), 4 ± 0.8 µg/mL (≈ 15 µM). This compound showed a clearance in data set [6] (setting [11]) of 13.3 mL/min/kg. Besides, in data set [6] (I.V. 5 mg ME/kg, n=5), the V turned out to be 1.0 ± 0.4 L/kg. The “absolute bioavailability (estimated)” value in [7] is below 2%.

On to `C=CCc1ccc(O)c(-c2ccc(OC)c(CC=C)c2)c1` [MHNK, 4-O-methylhonokiol], for which the “HNK formation from MHNK” value in data set [8] is reported as “no HNK detected”. Also, the “AUC0–24” value is 9.6 ± 4.0 ng·h/mL in [5] (setting [12]), 623.2 ± 358.8 ng·h/mL in data set [6] (setting [14]) and 79.9 ± 15.8 ^* hr*ng/mL in data set [7] (setting [15]). Further, the figures for the “AUC0−∞” value in [5] (setting [12]), in data set [6] (setting [14]) and in data set [7] (setting [15]) were 10.8 ± 3.0 ng·h/mL, 631.1 ± 360.0 ng·h/mL and 86.3 ± 15.7 ^* hr*ng/mL, respectively. Besides, the Cmax in data set [5] (setting [12]) is listed as 3.7 ± 0.9 ng/mL; in data set [6] (setting [14]) it was 824.3 ± 309.5 ng/mL; in data set [7] (setting [15]) it was 14.3 ± 6.6 ng/mL. The values for the time to peak (Tmax) in data set [5] (setting [12]) and in data set [7] (setting [15]) were 1.3 ± 0.6 h and 3.0 ± 2.0 h, respectively. Moreover, the Half-life in [5] (setting [13]) is 1.4 ± 0.6 h; in [6] (setting [14]), 3 h and 2.9 ± 2.1 h; in data set [7] (setting [16]), 7.1 ± 2.5 h. In addition, the “MRT0–24” value was determined as 1.8 ± 0.3 h in data set [5] (setting [13]); 1.5 ± 0.6 h in data set [6] (I.V. 5 mg ME/kg, n=5); 5.9 ± 0.7 h in data set [7] (setting [16]). Further, the IC50 anti-proliferation activity in data set [2] is listed as 5.2 ± 1.3 µg/mL (≈ 18.5 µM); in data set [3] (treatment period 24 hr), 14.5 ± 0.9 µg/mL (≈ 51.7 µM); in data set [3] (treatment period 48 hr) it was 7.7 ± 0.8 µg/mL (≈ 27.5 µM); in data set [3] (treatment period 72 hr), 5.6 ± 1.4 µg/mL (≈ 20 µM); in [3] (treatment period 96 hr) it was 3.2 ± 0.3 µg/mL (≈ 11.4 µM). The compound further displayed a CL in data set [6] (I.V. 5 mg ME/kg, n=5) of 33.3 ± 26.7 mL/min/kg. This compound displayed a V in [6] (I.V. 5 mg ME/kg, n=5) of 5.5 ± 1.7 L/kg. For the same compound, in data set [7], the “absolute bioavailability (estimated)” value is 1.1% and < 2%. Further, in data set [9], the “MHNK metabolized to HNK” value was 51 ± 23.9%. Besides, the “apical to basolateral permeability (Pab)” value in the data set on Caco-2 cell monolayer is recorded as 7.7 ± 0.4 × 10^−6 cm/sec.

For the compound `O=c1[nH]cc(F)c(=O)[nH]1` [5-FU, reference compound], the IC50 anti-proliferation activity in [2] stood at 1.9 ± 0.4 µg/mL (≈ 14.6 µM); in data set [3] (treatment period 72 hr), 0.4 ± 0.1 µg/mL (≈ 3.08 µM).

Values taken from publication PMC7604171 (Journal of agricultural and food chemistry, 2020).
